In assay [1] the target is tsr methyltransferase (thiostrepton resistance methyltransferase). The assay is described as follows: Inhibition of tsr methyltransferase methylation of mGAR (GTPase activating region of 23S rRNA): [3H]SAM incorporation, mGAR titration, 96-well (FIG. 7). The format is biochemical, Streptomyces azureus. The following applies: compounds at 50 μM, 25° C., 30 min, increasing mGAR, Ki=[I]/((Km(I)/Km)−1), tsr gene cloned, overexpressed in E. coli, read-out: TSR methyltransferase (GAR RNA methylation) Ki. As to the method:
The Km for each titration is determined by fitting the data to the equation
Bmax: incorporation at RNA substrate saturation in cpm.
[RNA]: concentration of target RNA.
The Ki value for a compound is determined by relating the Km in the presence and the Km in the absence of compound using the equation:
[I]: concentration of the inhibitory compound
Km(I): Michaelis constant in the presence of inhibitor
Km: Michaelis constant in the absence of inhibitor
In an preferred format, enzyme binding and activity is measured by measuring the Michealis constant (Km) of the enzymatic reaction in the absence and presence of a constant concentration of the test compound. Increasing amounts of target RNA are incubated with the modifying enzyme and the yield of modified RNA product is measured for each point. Data from this substrate titration are fitted to a saturation curve by non-linear regression. The Michaelis constant Km is determined from the curve-fitting by routine methods. […]
RNA (0-2 μM) was incubated in 25 mM HEPES-KOH, pH 7.5, 25 mM NH4Cl, 5 mM MgCl2, 5 mM DTT with test compounds. […] 50 μl scintillation cocktail (Wallac Optiszint) was added to each well of the dried filter plate and incorporated [^3H]-radioactivity was determined in a Wallac Trilux scintillation counter. […]

A further assay relates to rRNA. The assay is described as follows: rRNA methylation by Erm E in the presence of erythromycin. Type of assay: biochemical. As to conditions: erythromycin 200 μM. As to the method:
Erm E is inhibited by erythromycin (FIG. 21). Erythromycin inhibits enzyme activity most noticably when the RNA is folded in the presence of erythromycin (FIG. 21). One embodiment of the invention may therefore involve folding of the RNA in the presence of compound before measuring the activity of the methyltransferase on the RNA.
The reaction was performed in 50 μl 50 mM Tris/Cl, pH 7.5, 4 mM MgCl2, 40 mM KCl, 10 mM DTT, for 120 min at 37° C. with 0.04 μM rRNA and 6 μCi [3H]SAM. The erythromycin concentration was 200 μM.

The next assay deals with mGAR. As to the kind of experiment: Inhibition of tsr methylation activity by test compounds in 96 well plate, mGAR titration. The format is biochemical. As to conditions: compound at 50 μM, 25° C., 30 minutes, increasing amounts of mGAR; FIG. 7. As to the method: The Ki value for a compound is determined by relating the Km in the presence and the Km in the absence of compound using the equation: […]
In an preferred format, enzyme binding and activity is measured by measuring the Michealis constant (Km) of the enzymatic reaction in the absence and presence of a constant concentration of the test compound. Increasing amounts of target RNA are incubated with the modifying enzyme and the yield of modified RNA product is measured for each point. Data from this substrate titration are fitted to a saturation curve by non-linear regression. The Michaelis constant Km is determined from the curve-fitting by routine methods.
Test compounds were assayed in a 96 well plate for inhibition of tsr methylation activity at 50 μM. Compounds were incubated at 25° C. for 30 minutes in the presence of [^3H]SAM and enzyme, and increasing amounts of mGAR were added. RNA was precipitated with 2% TFA, filtered, and scintillation counted in a Wallac Trilux instrument.

The test system of the next assay is E. coli GAR. As to the kind of experiment: TSR methyltransferase methylation of GAR RNA with [3H]SAM, titration of inhibitor. The following applies: 23S (or GAR), competition with methyltransferase at A-1067; FIG. 6; read-out: affinity (binding measured by following inhibition of methylation). Type of assay: biochemical. As to the method:
RNA (0-2 μM) was incubated in 25 mM HEPES-KOH, pH 7.5, 25 mM NH4Cl, 5 mM MgCl2, 5 mM DTT with test compounds. The methylation reaction was started by adding 8 pmol TSR methyltransferase and 1 μCi [^3H]SAM (Amersham-Pharmacia). The final assay volume was 100 μl. The reaction was incubated 15 min at 25° C. and stopped by adding 1 vol. 2% TFA. The TFA precipitate was filtered through a 96-well glassfiber filterplate (Millipore Multiscreen FB 1.0 μM Glass Fiber Type B Filter). The filters were washed with 2 vol. of 2% TFA. 50 μl scintillation cocktail (Wallac Optiszint) was added to each well of the dried filter plate and incorporated [^3H]-radioactivity was determined in a Wallac Trilux scintillation counter.
The L11 ribosomal protein is an integral part of the GAR, and its presence inhibits methyltransferase activity [Bechthold & Floss, 1994]. Various concentrations of L11 were incubated with E. coli GAR and [^3H]SAM as described above. As expected, methylation was inhibited as L11 concentration increased.
Methyltransferase and thiostrepton thus compete for binding at A-1067, and binding of thiostiepton to 23S (or GAR) can be measured by following inhibition of methylation.

Data on four compounds can be found in patent US20020037516A1, “Assay for identification of a test compound” (priority 2000, published 2002).

For `NC[C@@H]1O[C@H](O[C@H]2[C@@H](O)[C@H](O[C@@H]3[C@@H](O)[C@H](N)C[C@H](N)[C@H]3O[C@H]3O[C@H](CN)[C@@H](O)[C@H](O)[C@H]3N)O[C@@H]2CO)[C@H](N)[C@@H](O)[C@@H]1O` [Neomycin, neomycin], the inhibitory constant (Ki) in assay [1] came to 9 µM. Take `CC[C@H]1OC(=O)[C@H](C)[C@@H](O[C@H]2C[C@@](C)(OC)[C@@H](O)[C@H](C)O2)[C@H](C)[C@@H](O[C@@H]2O[C@H](C)C[C@H](N(C)C)[C@H]2O)[C@](C)(O)C[C@@H](C)C(=O)[C@H](C)[C@@H](O)[C@]1(C)O` [erythromycin]: the “refolded rRNA methylation by Erm E” value with rRNA (refolded rRNA 0.04 μM, 120 min at 37° C., FIG. 21) is given as “decrease”. Also, the “effect on rRNA methylation by Erm E” value in the assay on rRNA (unfolded rRNA) is listed as “no effect”. Take `NC[C@@H]1O[C@H](O[C@H]2[C@@H](O)[C@H](O[C@@H]3[C@@H](O)[C@H](N)C[C@H](N)[C@H]3O[C@H]3O[C@H](CN)[C@@H](O)[C@H](O)[C@H]3N)O[C@@H]2CO)[C@H](N)[C@@H](O)[C@@H]1O` [neomycin]: the “inhibition of methyltransferase (methylation)” value with mGAR is recorded as “significant inhibition”. Take `C=C(NC(=O)C(=C)NC(=O)c1csc(C2=N[C@@H]3c4csc(n4)[C@H]4NC(=O)c5csc(n5)[C@H]([C@](C)(O)[C@@H](C)O)NC(=O)[C@H]5CSC(=N5)/C(=C/C)NC(=O)[C@H]([C@@H](C)O)NC(=O)c5csc(n5)[C@]3(CC2)NC(=O)[C@H](C)NC(=O)C(=C)NC(=O)[C@H](C)NC(=O)[C@H]([C@@H](C)CC)N[C@@H]2C=Cc3c([C@H](C)O)cc(nc3[C@H]2O)C(=O)O[C@@H]4C)n1)C(N)=O` [thiostrepton]: in the assay on E. coli GAR, the Kd turned out to be 1.1 µM.
